Source: publication PMC11013419, “Understanding Antidiabetic Potential of Oligosaccharides from Red Alga Dulse Devaleraea inkyuleei Xylan by Investigating α-Amylase and α-Glucosidase Inhibition” (Molecules, 2024)

Legend:
[1] = target: T1, recombined human maltase-glucoamylase (MGAM) (Homo sapiens, UniProt O43451); test: MGAM inhibition assay (glucose released from maltose); assay type: biochemical; conditions: maltose substrate, 37 °C, pH 6.4
T1 construct: made in house
Description: (§1) For this experiment, recombined human maltase-glucoamylase (MGAM) was prepared as previously reported and dissolved in 0.1 M phosphate buffer (pH 6.4) to produce a solution at 0.5 U/mL. Pre-incubation was initiated by mixing 20 µL of MGAM solution with 20 µL of inhibitor or distilled water for 10 min at 37 °C. Then, 40 µL of 8 mM maltose or phosphate buffer was added and the mixture was incubated at 37 °C for 10 min, and the reaction was stopped by boiling for 10 min and cooling in an ice bath. Glucose was quantified using a Glucose CII-test (Wako Pure Chemical Industries, Osaka, Japan). The 20 µL reaction mixture was added to a 100 µL of Glucose CII-test. The reaction proceeded for 10 min at 37 °C, and the absorbance at 492 nm was measured. The inhibition was analysed at different inhibitor and substrate concentrations. The half-maximum inhibition concentration (IC50) was calculated using nonlinear regression. The MGAM inhibitory activity was calculated as follows: MGAM inhibitory activity=1−As−A0/Ac×100 where As represents the absorbance of the sample, Ac is the absorbance of the control without the inhibitor, and A0 is the absorbance of the sample without MGAM.

α-amylase = target: T2, α-amylase (Sus scrofa, UniProt P00690); test: Kinetics of α-amylase inhibition (Michaelis–Menten, Lineweaver–Burk); assay type: biochemical, porcine
T2 construct: α-amylase from porcine pancreas (EC 3.2.1.1), type VI-B; purchased Sigma Aldrich type VI-B; host or cells: porcine pancreas
T2 sequence (P00690 16-511): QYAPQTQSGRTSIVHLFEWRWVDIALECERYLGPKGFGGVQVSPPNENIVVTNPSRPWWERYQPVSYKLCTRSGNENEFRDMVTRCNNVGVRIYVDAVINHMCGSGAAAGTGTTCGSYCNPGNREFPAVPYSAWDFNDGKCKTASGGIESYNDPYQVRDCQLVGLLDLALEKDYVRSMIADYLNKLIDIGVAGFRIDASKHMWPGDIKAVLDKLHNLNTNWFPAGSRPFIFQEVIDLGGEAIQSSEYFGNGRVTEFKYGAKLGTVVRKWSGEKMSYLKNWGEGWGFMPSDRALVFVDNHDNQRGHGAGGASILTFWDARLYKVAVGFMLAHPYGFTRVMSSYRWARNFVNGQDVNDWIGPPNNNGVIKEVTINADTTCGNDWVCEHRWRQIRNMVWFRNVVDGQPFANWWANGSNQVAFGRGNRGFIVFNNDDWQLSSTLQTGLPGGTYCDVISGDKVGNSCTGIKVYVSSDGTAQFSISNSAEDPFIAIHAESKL
Description: The α-amylase from porcine pancreas solution was freshly prepared by mixing enzyme powder with 20 mM phosphate buffer (pH 6.9) containing 6.7 mM NaCl to produce a solution at 3 U/mL [39]. Pre-incubation was initiated by mixing 20 µL of α-amylase solution with 20 µL of inhibitor or distilled water for 10 min at 37 °C. Then, 20 µL of 1% (w/v) starch (prepared in 20 mM phosphate buffer (pH 6.9) containing 6.7 mM NaCl and heated at 100 °C for 10 min) or phosphate buffer was added, and the mixture was incubated at 37 °C for 10 min. The reaction was stopped by boiling the mixture for 10 min and cooling in an ice bath. The concentration of reducing sugars was calculated by the DNS method. The inhibition was analysed at different inhibitor and substrate concentrations. The half-maximum inhibition concentration (IC50) was calculated using nonlinear regression. The α-amylase inhibitory activity was calculated as follows: α-amylase inhibitory activity=1−As−A0/Ac×100 where As represents the absorbance of the sample, Ac is the absorbance of the control without the inhibitor, and A0 is the absorbance of the sample without α-amylase. […]

MGAM [2] = target: T3, MGAM (Homo sapiens, UniProt O43451); test: Kinetics of MGAM inhibition (Michaelis–Menten, Lineweaver–Burk); assay type: biochemical; conditions: for Inhibition Type (MGAM): Lineweaver–Burk plot; for Vmax^app, inhibitor concentration A / Vmax^app, inhibitor concentration B / Vmax^app, inhibitor concentration C: MGAM, without inhibitor 0.089; for Vmax^app, inhibitor concentration A: A: X2 1.49, X3 1.63, DX3 1.33, DX4 1.28 mg/mL; for Vmax^app, inhibitor concentration B: B: X2 2.79, X3 4.08, DX3 3.32, DX4 3.19 mg/mL; for Vmax^app, inhibitor concentration C: C: X2 3.73, X3 10.19, DX3 8.30, DX4 7.98 mg/mL; for Ki: competitive inhibition constant
T3 construct: made in house
T3 sequence (O43451 whole entry): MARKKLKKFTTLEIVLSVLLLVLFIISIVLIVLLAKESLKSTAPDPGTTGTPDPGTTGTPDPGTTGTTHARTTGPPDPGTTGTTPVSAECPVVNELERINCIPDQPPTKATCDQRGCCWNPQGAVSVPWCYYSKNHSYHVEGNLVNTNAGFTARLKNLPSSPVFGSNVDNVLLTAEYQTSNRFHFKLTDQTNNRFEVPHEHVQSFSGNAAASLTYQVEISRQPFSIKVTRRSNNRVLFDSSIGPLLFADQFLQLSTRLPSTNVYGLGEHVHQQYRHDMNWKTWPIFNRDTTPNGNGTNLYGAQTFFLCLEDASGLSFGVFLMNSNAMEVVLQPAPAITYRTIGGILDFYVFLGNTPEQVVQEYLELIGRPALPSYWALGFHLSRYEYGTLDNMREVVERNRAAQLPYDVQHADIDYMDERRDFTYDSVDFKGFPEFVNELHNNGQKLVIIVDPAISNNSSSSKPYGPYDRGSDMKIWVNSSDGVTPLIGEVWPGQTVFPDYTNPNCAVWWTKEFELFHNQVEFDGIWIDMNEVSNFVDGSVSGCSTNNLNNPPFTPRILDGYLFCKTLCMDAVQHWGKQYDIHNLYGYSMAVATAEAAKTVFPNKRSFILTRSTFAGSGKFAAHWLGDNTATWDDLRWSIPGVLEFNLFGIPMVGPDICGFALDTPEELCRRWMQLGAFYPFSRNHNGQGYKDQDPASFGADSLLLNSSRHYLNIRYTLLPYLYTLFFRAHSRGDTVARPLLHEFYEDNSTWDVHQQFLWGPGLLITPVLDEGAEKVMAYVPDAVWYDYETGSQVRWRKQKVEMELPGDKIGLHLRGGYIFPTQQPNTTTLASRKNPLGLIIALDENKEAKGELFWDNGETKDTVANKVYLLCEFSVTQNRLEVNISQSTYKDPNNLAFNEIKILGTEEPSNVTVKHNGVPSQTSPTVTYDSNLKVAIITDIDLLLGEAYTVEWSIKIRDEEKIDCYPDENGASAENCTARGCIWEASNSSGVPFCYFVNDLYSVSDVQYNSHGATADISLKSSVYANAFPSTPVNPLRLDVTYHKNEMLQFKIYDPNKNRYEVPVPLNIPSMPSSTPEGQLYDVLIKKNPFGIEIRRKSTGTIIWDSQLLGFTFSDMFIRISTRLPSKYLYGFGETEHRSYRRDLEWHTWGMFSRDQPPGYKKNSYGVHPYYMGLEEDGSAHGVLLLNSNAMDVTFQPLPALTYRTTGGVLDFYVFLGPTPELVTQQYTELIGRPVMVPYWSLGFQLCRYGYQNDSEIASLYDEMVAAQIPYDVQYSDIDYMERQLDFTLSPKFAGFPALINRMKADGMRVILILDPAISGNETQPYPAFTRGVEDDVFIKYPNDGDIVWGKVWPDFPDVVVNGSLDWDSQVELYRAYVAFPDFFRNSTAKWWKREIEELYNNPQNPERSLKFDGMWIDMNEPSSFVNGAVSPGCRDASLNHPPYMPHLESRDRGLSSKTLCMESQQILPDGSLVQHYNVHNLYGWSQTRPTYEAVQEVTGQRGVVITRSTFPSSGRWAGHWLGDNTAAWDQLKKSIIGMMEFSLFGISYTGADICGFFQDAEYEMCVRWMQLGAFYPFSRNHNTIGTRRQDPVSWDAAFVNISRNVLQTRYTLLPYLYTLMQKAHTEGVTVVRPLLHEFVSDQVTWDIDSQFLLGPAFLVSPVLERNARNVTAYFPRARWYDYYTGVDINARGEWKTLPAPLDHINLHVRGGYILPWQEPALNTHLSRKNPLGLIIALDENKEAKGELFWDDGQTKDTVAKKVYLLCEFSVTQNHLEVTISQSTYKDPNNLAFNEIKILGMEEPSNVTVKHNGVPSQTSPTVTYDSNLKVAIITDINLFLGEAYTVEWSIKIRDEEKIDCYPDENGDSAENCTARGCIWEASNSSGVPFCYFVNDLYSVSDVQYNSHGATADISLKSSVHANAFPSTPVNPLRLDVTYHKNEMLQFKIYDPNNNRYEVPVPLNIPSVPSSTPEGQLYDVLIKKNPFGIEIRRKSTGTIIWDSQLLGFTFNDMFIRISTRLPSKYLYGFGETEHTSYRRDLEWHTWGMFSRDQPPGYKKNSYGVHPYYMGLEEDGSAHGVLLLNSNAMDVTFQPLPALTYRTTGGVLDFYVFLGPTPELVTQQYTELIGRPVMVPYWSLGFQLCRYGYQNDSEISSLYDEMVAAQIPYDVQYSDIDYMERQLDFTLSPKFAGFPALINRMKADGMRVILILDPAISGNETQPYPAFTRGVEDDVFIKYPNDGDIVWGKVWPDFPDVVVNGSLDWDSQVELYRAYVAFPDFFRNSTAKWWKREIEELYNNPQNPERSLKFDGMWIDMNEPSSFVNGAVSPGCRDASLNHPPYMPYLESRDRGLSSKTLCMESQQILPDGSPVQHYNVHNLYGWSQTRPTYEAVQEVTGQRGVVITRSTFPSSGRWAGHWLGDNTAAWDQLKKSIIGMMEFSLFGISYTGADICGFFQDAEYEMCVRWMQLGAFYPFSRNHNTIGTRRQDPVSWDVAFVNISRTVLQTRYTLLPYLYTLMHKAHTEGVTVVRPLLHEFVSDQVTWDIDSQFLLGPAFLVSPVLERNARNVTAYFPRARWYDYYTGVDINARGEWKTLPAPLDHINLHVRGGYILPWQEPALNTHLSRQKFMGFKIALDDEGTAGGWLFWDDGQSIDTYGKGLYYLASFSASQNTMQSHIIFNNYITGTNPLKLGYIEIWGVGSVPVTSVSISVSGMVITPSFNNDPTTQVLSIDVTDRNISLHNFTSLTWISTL
Description: as §1
To study the kinetics of MGAM and α-amylase inhibition by XOS, the initial velocity in absorbance/min (ΔOD/min) was calculated at different substrate concentrations (0 to 10 mg/mL starch concentration for α-amylase and 0 to 8 mM maltose concentration for MGAM) and XOS concentrations. The values of initial velocity at different substrate concentrations at each XOS concentration was plotted (Michaelis–Menten plot), as well as the double reciprocal plot at each XOS concentration (Lineweaver–Burk plot).
The Michaelis–Menten equation for competitive inhibition is given as follows: v=Vmax×S/Km1+I/Ki+S=Vmaxapp×S/Kmapp+S
And the corresponding Lineweaver–Burk equation is given as follows: 1/v=Km/Vmax1+I/Ki1/S+1/Vmax where v is the initial velocity, Vmax is the maximum initial reaction velocity, I is the concentration of the inhibitor, S is the concentration of the substrate, Km is the Michaelis constant, and Ki is the competitive inhibition constant.

[3] = target: T4, α-amylase from porcine pancreas (Sus scrofa, UniProt P00690); test: α-Amylase inhibition assay (starch, DNS method); assay type: biochemical; conditions: for IC50: porcine pancreas α-amylase, 1% starch, 37 °C, pH 6.9
T4 construct: α-amylase from porcine pancreas (EC 3.2.1.1), type VI-B; purchased Sigma Aldrich type VI-B; host or cells: porcine pancreas
T4 sequence (P00690 16-511): T2 sequence (P00690 16-511)
Description: The α-amylase from porcine pancreas solution was freshly prepared by mixing enzyme powder with 20 mM phosphate buffer (pH 6.9) containing 6.7 mM NaCl to produce a solution at 3 U/mL [39]. Pre-incubation was initiated by mixing 20 µL of α-amylase solution with 20 µL of inhibitor or distilled water for 10 min at 37 °C. Then, 20 µL of 1% (w/v) starch (prepared in 20 mM phosphate buffer (pH 6.9) containing 6.7 mM NaCl and heated at 100 °C for 10 min) or phosphate buffer was added, and the mixture was incubated at 37 °C for 10 min. The reaction was stopped by boiling the mixture for 10 min and cooling in an ice bath. The concentration of reducing sugars was calculated by the DNS method. The inhibition was analysed at different inhibitor and substrate concentrations. The half-maximum inhibition concentration (IC50) was calculated using nonlinear regression. The α-amylase inhibitory activity was calculated as follows: α-amylase inhibitory activity=1−As−A0/Ac×100 where As represents the absorbance of the sample, Ac is the absorbance of the control without the inhibitor, and A0 is the absorbance of the sample without α-amylase.

α-glucosidase = tested on: α-glucosidase; set-up: method as in doi:10.1007/s12257-017-0049-8; conditions: at 10 mg/mL; cited from earlier work
MGAM [4] = target: MGAM; set-up: method as in PMID 22058037; conditions: as reported; cited from earlier work

T1 sequence (O43451 whole entry): as above

IC50 [1] [mM]	Inhibition Type (MGAM) (MGAM [2])	Vmax^app, inhibitor concentration A (MGAM [2]) [DO/min]	Vmax^app, inhibitor concentration B (MGAM [2]) [DO/min]	Vmax^app, inhibitor concentration C (MGAM [2]) [DO/min]	Ki (MGAM [2]) [mM]	Compound	inhibition rate (α-glucosidase) [%]	further results
45	Competitive	0.086	0.086	0.086	53.9	OC1COC(OC2COC(O)C(O)C2O)C(O)C1O (stereo not drawn) [X2, β-(1→4)-xylobiose]		Inhibition type (α-amylase) (α-amylase; Lineweaver–Burk plot): competitive; Vmax^app (α-amylase) (α-amylase; X2 12.42 mg/mL, X3 13.58 mg/mL, without inhibitor 0.056): 0.061 DO/min; IC50 [3]: 64 mM
						OC[C@H]1OC(O)[C@H](O)[C@@H](O[C@@H]2O[C@H]3CO[C@@H]([C@@H]2O)[C@@H]3O)[C@H]1O (stereo partly shown) [neoagarobiose]	35.3	
						C[C@H]1O[C@H](O[C@H]2[C@H](O)[C@@H](O)[C@@H](O[C@H]3[C@H](O)[C@@H](O)C(O)O[C@@H]3CO)O[C@@H]2CO)[C@H](O)[C@@H](O)[C@@H]1N[C@H]1C=C(CO)[C@@H](O)[C@H](O)[C@H]1O (stereo partly shown) [Acarbose]		Ki (MGAM [4]): 0.062 mM; Ki for MGAM (MGAM [4]): 40 µg/mL
23.6	Competitive	0.102	0.105	0.102	42.7	OC1COC(OC2C(O)COC(OC3COC(OC4COC(O)C(O)C4O)C(O)C3O)C2O)C(O)C1O (stereo not drawn) [DX4, β-(1→3)-xylosyl-β-(1→4)-xylotriose]		inhibition at 10640 µg/mL ([3]; at 10.64 mg/mL): 2.9%
						OC[C@H]1O[C@@H](O)[C@H](O)[C@@H](O[C@@H]2O[C@H]3CO[C@@H]([C@@H]2O)[C@@H]3O[C@@H]2O[C@H](CO)[C@H](O)[C@H](O[C@@H]3O[C@H]4CO[C@@H]([C@@H]3O)[C@@H]4O)[C@H]2O)[C@H]1O [neoagarotetraose]	33.2	
						OC[C@H]1O[C@@H](O)[C@H](O)[C@@H](O[C@@H]2O[C@H]3CO[C@@H]([C@@H]2O)[C@@H]3O[C@@H]2O[C@H](CO)[C@H](O)[C@H](O[C@@H]3O[C@H]4CO[C@@H]([C@@H]3O)[C@@H]4O[C@@H]3O[C@H](CO)[C@H](O)[C@H](O[C@@H]4O[C@H]5CO[C@@H]([C@@H]4O)[C@@H]5O)[C@H]3O)[C@H]2O)[C@H]1O [neoagarohexaose]	17.0	
32.3	Competitive	0.101	0.093	0.102	44.2	OC1COC(OC2C(O)COC(OC3COC(O)C(O)C3O)C2O)C(O)C1O (stereo not drawn) [DX3, β-(1→3)-xylosyl-β-(1→4)-xylobiose]		IC50 [3]: 128 mM
